# Data taken from patent US7449495B2, “Retinoid derivatives with antiangiogenic, antitumoral and proapoptotic activities” (Sigma-Tau Industrie Farmaceutiche Riunite S.p.A., priority 2001, dated 2008).
# Like-named read-outs stand apart in the source and are kept apart here.
# What was measured:
# [1] = system: NB4 acute promyelocytic leukaemia cell line; assay: Cytotoxicity test (sulphorodamine B), NB4; type: cell-based, human; details: 24 h incubation, survival 48 h after removal, read-out: IC50
# Source text: (§1) To carry out the cytotoxicity tests, two acute promyelocytic leukaemia (APL) cell lines were used. • 1. Cell line NB4, carrying the chromosomal translocation t(15; 17) which generates the fusion protein PML/RARα. This cell line is extremely sensitive to the differentiating action of pharmaceutical doses of ATRA (10^−7-10^−6 M); • 2. Cell line HL60, which responds to ATRA less sensitively with respect to cell line NB4.
# (§2) These cell lines were maintained in RPMI 1640 containing 10% foetal calf serum (FCS) and 1% glutamine.
# The cytotoxicity tests were carried out using NB4 or HL-60 cells in suspension (10000/well). The cells were seeded in a volume of 250 μl in 96 well plates and incubated for 24 hours at 37° C. The following day, test compound ST 1926 [(2E)-3-[3′-(1-Adamantyl)-4′-hydroxy[1,1′-biphenyl]-4-yl]-2-propenoate/ic acid] was added at increasing concentrations, and the cells were incubated for a further 24 hours at 37° C. in a humidified atmosphere containing 5% CO2. On the 3rd day, the medium was removed by centrifuging the plate at 1600×g for 10 min and the supernatant decanted. 250 μl of PBS were added; then the plates were centrifuged again at 1600×g for 10 minutes and the supernatant decanted. 200 μl/well of RPMI 1640 medium containing 10% FCS were added and the plates were incubated at 37° C. for a further 48 hours. On the 5th day, the plates were again centrifuged at 1600×g for 10 minutes, and the medium was removed by upturning the plates, 200 μl of PBS and 50 μl of cold, 80% TCA were added. The plates were then left to incubate on ice for at least 1 hour. The TCA was removed by upturning; the plates were washed three times by immersion in distilled water and dried first on paper, then with a jet of hot air. To all wells were added 200 μl of 0.4% sulphorodamine B in 1% acetic acid. The plates were incubated at room temperature for a further 30 minutes. […] The optical density was measured using a Multiskan spectrophotometer at 540 nm.
# (§3) Cell survival was determined by incubation with ST1926 for 24 hours, 48 hours after the removal of the compound. […]
# [2] = system: HL60 acute promyelocytic leukaemia cell line; assay: Cytotoxicity test (sulphorodamine B), HL-60; type: cell-based; details: Homo sapiens, 24 h incubation, survival 48 h after removal
# Source text: as §1, §2
# The cytotoxicity tests were carried out using NB4 or HL-60 cells in suspension (10000/well). The cells were seeded in a volume of 250 μl in 96 well plates and incubated for 24 hours at 37° C. The following day, test compound ST 1926 [(2E)-3-[3′-(1-Adamantyl)-4′-hydroxy[1,1′-biphenyl]-4-yl]-2-propenoate/ic acid] was added at increasing concentrations, and the cells were incubated for a further 24 hours at 37° C. in a humidified atmosphere containing 5% CO2. On the 3rd day, the medium was removed by centrifuging the plate at 1600×g for 10 min and the supernatant decanted. […] The optical density was measured using a Multiskan spectrophotometer at 540 nm.
# as §3
# [3] = system: Human ovarian carcinoma IGROV-1/Pt (platinum resistant); assay: Cytotoxicity test (sulphorodamine B), IGROV-1/Pt; type: cell-based; details: 24 h incubation, survival 48 h after removal
# Source text: (§4) Different cell lines deriving from solid tumors were also used. • 1. Human prostate carcinoma PC3 and DU145. These cell lines were maintained in RPMI 1640 medium containing 10% FCS, 1% sodium pyruvate and 1% glutamine; • 2. Human colon adenocarcinoma LoVo. This cell line was maintained in HAM's F-12 medium, containing 10% FCS and 1% glutamine. • 3. Human ovarian carcinoma such as A2780 and A2780/Dx, sensitive and resistant to drugs, respectively (doxorubicin, taxol, etoposide, vincristine); IGROV-1 and IGROV-1/Pt, sensitive and resistant to platinum-based chemotherapy, respectively, were maintained in RPMI 1640 medium containing 10% FCS, 1% sodium pyruvate and 1% glutamine; • 4. Human melanoma MeWo and MeS 2.21, glioblastoma GBM, no small cell lung carcinomas A431, NCI—H460, osteosarcomas SAOS and U2OS were maintained in RPMI 1640 medium containing 10% FCS, 1% sodium pyruvate and 1% glutamine.
# (§5) The cytotoxicity tests were carried out using NB4 or HL-60 cells in suspension (10000/well). The cells were seeded in a volume of 250 μl in 96 well plates and incubated for 24 hours at 37° C. […] The optical density was measured using a Multiskan spectrophotometer at 540 nm. […]
# as §3
# Human melanoma MeWo = assay: Cytotoxicity test (sulphorodamine B), MeWo; type: cell-based; details: 24 h incubation, survival 48 h after removal
# Source text: as §4, §5, §3
# [4] = system: no small cell lung carcinoma NCI-H460; assay: Cytotoxicity test (sulphorodamine B), NCI-H460; type: cell-based; details: Homo sapiens, 24 h incubation, survival 48 h after removal
# Source text: as §4, §5, §3
# [5] = system: human microvascular endothelial (HMVE) cells; details: after 96 h of treatment, cited from earlier work
smiles,measurement,setting,value
"O=C(O)/C=C/c1ccc(-c2ccc(O)c(C34CC5CC(CC(C5)C3)C4)c2)cc1 [ST1926, E-4-(3-(1-adamantyl)-4-hydroxyphenyl)cinnamic acid]",IC50,[1],20 nM
same,IC50,[1]; Homo sapiens,22 nM
same,IC50,[2],200 nM
same,IC50,[3],330 nM
same,IC50,Human melanoma MeWo,230 nM
same,IC50,[4],190 nM
same,inhibition (%) at 0.5 μM,"[5]; 0.5 μM, relative to vehicle alone control",90%
same,IC50,"[5]; highest concentration evaluated 0.5 μM, read-out: IC50 (concentration inhibiting proliferation by 50%)",100 nM
